Test results: ChEMBL document CHEMBL5252664, “Orally Active Forms of DMT, 5-MeO-DMT, and Long-Acting MDMA for the Treatment of Neuropsychiatric Disorders” (ACS Med Chem Lett, 2023)

Tests used:
Format in all cases: ADME, organism-based
Details in all cases: in vivo
[1] = Cmax in Sprague-Dawley rat at 10 mg/kg, po; design: dose 10 mg/kg, route po
[2] = AUC (0 to last) in Sprague-Dawley rat at 10 mg/kg, po; design: dose 10 mg/kg, route po
[3] = Half life in Sprague-Dawley rat at 10 mg/kg, po
[4] = Tmax in Sprague-Dawley rat at 10 mg/kg, po

Compound	Cmax [1]	AUC(0-t) [2]	half-life [3]	Tmax [4]
C[C@H](N)C(=O)n1cc(CCN(C)C)c2ccccc21.Cl.Cl	20.2 ng/mL	126 ng·h/mL	4.08 h	0.5 h
COc1ccc2c(c1)c(CCN(C)C)cn2C(=O)c1ccccc1	17.7 ng/mL	66.5 ng·h/mL	10.3 h	1 h
COc1ccc2c(c1)c(CCN(C)C)cn2C(=O)[C@@H](N)C(C)C.Cl.Cl	11.1 ng/mL	155 ng·h/mL	5.54 h	2 h
CN(C)CCc1cn(C(=O)CN(C)C(=O)[C@H](N)Cc2ccccc2)c2ccccc12.Cl.Cl	2.43 ng/mL	7.17 ng·h/mL	3.31 h	0.5 h
COc1ccc2c(c1)c(CCN(C)C)cn2C(=O)CCCC(C)=O	106 ng/mL	362 ng·h/mL	2.02 h	1 h
